The numbers were not newly measured in patent US20250186613A1 (The Trustees of the University of Pennsylvania, priority 2022, published 2025), which cites them from elsewhere.

Read-outs that look alike come from different tables or passages of the source.

The conditions of data set [1]: cited from earlier work.
Another data set has as its target T1, GLP-2 receptor (Homo sapiens, UniProt O95838).
T1 sequence (O95838 1-553): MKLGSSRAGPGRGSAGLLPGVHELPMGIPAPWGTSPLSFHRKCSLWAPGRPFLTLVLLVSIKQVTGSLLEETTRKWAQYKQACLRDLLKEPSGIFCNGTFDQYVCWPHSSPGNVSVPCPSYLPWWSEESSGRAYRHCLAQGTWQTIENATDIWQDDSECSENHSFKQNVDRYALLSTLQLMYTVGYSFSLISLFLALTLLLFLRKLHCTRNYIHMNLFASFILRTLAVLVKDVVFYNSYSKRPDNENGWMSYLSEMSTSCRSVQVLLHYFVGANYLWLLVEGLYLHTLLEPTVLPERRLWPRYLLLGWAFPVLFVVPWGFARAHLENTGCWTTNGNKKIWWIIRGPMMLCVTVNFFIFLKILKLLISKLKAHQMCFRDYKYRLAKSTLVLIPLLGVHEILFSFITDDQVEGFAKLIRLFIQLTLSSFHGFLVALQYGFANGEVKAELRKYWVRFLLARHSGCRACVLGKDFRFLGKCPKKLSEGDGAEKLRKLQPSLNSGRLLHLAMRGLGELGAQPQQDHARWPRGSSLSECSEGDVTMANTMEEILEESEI
To be noted: relative to GLP2; cited from earlier work.

For data set [2] the following is noted: daily 0.05 mg/kg subcutaneous, cited from earlier work.

For the molecule `CC[C@H](C)[C@H](NC(=O)[C@H](Cc1ccccc1)NC(=O)[C@H](CC(=O)O)NC(=O)[C@H](CCCN=C(N)N)NC(=O)[C@H](C)NC(=O)[C@H](C)NC(=O)[C@H](CC(C)C)NC(=O)[C@H](CC(N)=O)NC(=O)[C@H](CC(=O)O)NC(=O)[C@H](CC(C)C)NC(=O)[C@@H](NC(=O)[C@@H](NC(=O)[C@H](CC(N)=O)NC(=O)[C@H](CCSC)NC(=O)[C@H](CCC(=O)O)NC(=O)[C@H](CC(=O)O)NC(=O)[C@H](CO)NC(=O)[C@H](Cc1ccccc1)NC(=O)[C@H](CO)NC(=O)CNC(=O)[C@H](CC(=O)O)NC(=O)[C@H](C)NC(=O)[C@@H](N)Cc1cnc[nH]1)[C@@H](C)O)[C@@H](C)CC)C(=O)N[C@@H](CC(N)=O)C(=O)N[C@@H](Cc1c[nH]c2ccccc12)C(=O)N[C@@H](CC(C)C)C(=O)N[C@H](C(=O)N[C@@H](CCC(N)=O)C(=O)N[C@H](C(=O)N[C@@H](CCCCN)C(=O)N[C@H](C(=O)N[C@H](C(=O)N[C@@H](CC(=O)O)C(=O)O)[C@@H](C)O)[C@@H](C)CC)[C@@H](C)O)[C@@H](C)CC` [GLP-2], the serum half-life in data set [1] (native peptide, cleaved by DPP IV) was 0.083 h.

In the case of Glepaglutide, the “EC50 (/GLP2)” value at GLP-2 receptor was 4 /GLP2. Further, in data set [1] (in vivo), the “T½” value was 50 h.

Take `CC[C@H](C)[C@H](NC(=O)[C@H](Cc1ccccc1)NC(=O)[C@H](CC(=O)O)NC(=O)[C@H](CCCNC(=N)N)NC(=O)[C@H](C)NC(=O)[C@H](C)NC(=O)[C@H](CC(C)C)NC(=O)[C@H](CC(N)=O)NC(=O)[C@H](CC(=O)O)NC(=O)[C@H](CC(C)C)NC(=O)[C@@H](NC(=O)[C@@H](NC(=O)[C@H](CC(N)=O)NC(=O)[C@H](CCSC)NC(=O)[C@H](CCC(=O)O)NC(=O)[C@H](CC(=O)O)NC(=O)[C@H](CO)NC(=O)[C@H](Cc1ccccc1)NC(=O)[C@H](CO)NC(=O)CNC(=O)[C@H](CC(=O)O)NC(=O)CNC(=O)[C@@H](N)Cc1c[nH]cn1)[C@@H](C)O)[C@@H](C)CC)C(=O)N[C@@H](CC(N)=O)C(=O)N[C@@H](Cc1c[nH]c2ccccc12)C(=O)N[C@@H](CC(C)C)C(=O)N[C@H](C(=O)N[C@@H](CCC(N)=O)C(=O)N[C@H](C(=O)N[C@@H](CCCCN)C(=O)N[C@H](C(=O)N[C@H](C(=O)N[C@@H](CC(=O)O)C(=O)O)[C@@H](C)O)[C@@H](C)CC)[C@@H](C)O)[C@@H](C)CC` [Teduglutide]: in data set [2] (2 years of treatment), the “patients who achieved >20% reduction of PN volume per week from the baseline” value is given as 90% and the “patients who obtained >1 additional days PN off per week from the baseline” value is recorded as 70%. The PN volume result in data set [2] (throughout 2 years of treatment) was “sustained and continuous reduction of PN volume”. In data set [1] (A2G mutation for DPP IV resistance), the serum half-life was 1.5 h. Moreover, the “T½ (h)” value in data set [1] (in vivo) is recorded as 1.5 (0.1) h.

In the case of Apraglutide, the “EC50 (/GLP2)” value on GLP-2 receptor is 0.5 /GLP2. Further, in data set [1] (in vivo), the “T½” value is on record as 30 h.
